In patent EP0021292A1, “Alkoxybenzylpyridopyrimidines, methods for their preparation and pharmaceutical formulations thereof” (THE WELLCOME FOUNDATION LIMITED, priority 1979, dated 1981):

Tests used:
[1] = system: Leukemia P388 cells; assay: Antileukemic effect on intraperitoneally inoculated P388 leukemia in mice; format: in vivo, CDF, Charles River female mice; conditions: for antileukemic activity: mice, 22, 33.5, 50 and 75 mg/kg, same schedule (twice daily for three days); for % increases in life span: mice
Text: Leukemia P388 cells were inoculated intraperitoneally in CDF, Charles River female mice, each animal receiving 10^6 cells. On the second day after implantation with the leukemic cells, drug treatment was commenced and continued twice daily for three days.

[2] = target: T1, DHFR partially purified from rat liver (Rattus norvegicus, UniProt Q920D2); assay: Inhibition of mammalian dihydrofolate reductase (DHFR); format: biochemical
T1 construct: DHFR partially purified from rat liver; from tissue; host or cells: rat liver
T1 sequence (Q920D2 1-187): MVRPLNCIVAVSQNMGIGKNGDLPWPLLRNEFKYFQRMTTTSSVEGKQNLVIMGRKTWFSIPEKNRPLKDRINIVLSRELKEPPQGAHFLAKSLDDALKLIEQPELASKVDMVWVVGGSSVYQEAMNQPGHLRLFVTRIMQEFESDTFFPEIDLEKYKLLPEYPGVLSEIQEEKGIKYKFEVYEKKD
Method: The inhibitory effect of the test compounds against DHFR partially purified from rat liver was determined.

[3] = target: Histamine N-methyl-transferase ( HMT ) (Homo sapiens, UniProt P50135); assay: Inhibition of histamine N-methyltransferase (HMT); format: biochemical; conditions: read-out: % inhibition of HMT at 10^-5M
Chain of Histamine N-methyl-transferase ( HMT ) (P50135 whole entry, species assumed): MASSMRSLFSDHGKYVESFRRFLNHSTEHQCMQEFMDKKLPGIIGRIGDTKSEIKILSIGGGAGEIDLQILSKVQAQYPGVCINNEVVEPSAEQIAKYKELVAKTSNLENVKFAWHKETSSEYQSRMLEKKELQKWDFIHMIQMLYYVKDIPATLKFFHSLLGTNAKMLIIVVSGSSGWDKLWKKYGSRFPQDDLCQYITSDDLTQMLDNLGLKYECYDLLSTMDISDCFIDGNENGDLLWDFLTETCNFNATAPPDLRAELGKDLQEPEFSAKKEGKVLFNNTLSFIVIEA
Method: EXAMPLE 4 Inhibition of Histamine N-methyl-transferase ( HMT ) by 2,4-Diamino-6-benzylpyrido(2,3-d)pyrimidine
The effect of the test compounds used in Example 3 against HMT was determined. An inhibition of less than 20% was considered acceptable and the lack of any effect on this enzyme is most desirable since any interference with histamine metabolism should be minimized.

[4] = system: Solid Walker 256 tumors; assay: Antitumor effect on subcutaneously implanted Walker 256 tumors in rats; format: in vivo; conditions: for mean tumor volume as % of the untreated group: after 17 days
Method: Solid Walker 256 tumors were implanted subcutaneously into three groups of rats. On the third day after implantation with the tumors drug treatment was commenced and continued for 5 successive days. One group of rats was treated with 2,4-diamino-6-(2,5-dimethoxybenzyl)-5-methylpyrido(2,3-d) pyrimidine at a dose of 25mg/kg q.i.d., a second group was treated with the same compound at 15 mg/kg b.i.d.; the third group were left untreated as controls.
In a second study tumors were implanted subcutaneously and drug treatment delayed until 10 days after implantation. Drug treatment consisted of 30 mg/kg q.i.d. on days 10-13 and 50 mg/kg on days 20, 24 and 28 after tumor implantation. Mean tumor volumes were measured during the course of this study. […] Twenty-three days after tumor implantation T/C was 0.03.

[5] = Acute toxicity in mice (i.p.); conditions: mouse, in vivo, ip
Method: The acute toxicity of the title compounds was determined in mice ( i.p. ). The following results were obtained:-

Compound | IC50 [2] | inhibition at 10 µM [3] | also measured
Cc1c(Cc2ccccc2Cl)cnc2nc(N)nc(N)c12 [2-chlorobenzyl compound] | – | – | antileukemic activity [1]: only marginal or slight activity
COc1ccc(Cc2cnc3nc(N)nc(N)c3c2C)cc1 | – | – | antileukemic activity [1]: inactive at all doses
Cc1c(Cc2ccccc2Cl)cnc2nc(N)nc(N)c12 [the 1st table, row 5] | 16 nM | 59% | –
Nc1nc(N)c2cc(Cc3ccccc3)cnc2n1 | 250 nM | 48% | –
COc1ccc(OC)c(Cc2cnc3nc(N)nc(N)c3c2C)c1 [2,4-Diamino-5-methyl-6-(2,5-dimethoxybenzyl)pyrido-(2,3-d)pyrimidine)] | – | – | mean tumor volume as % of the untreated group ([4]; 15 mg/kg b.i.d. for 5 successive days from third day after implantation): 10%; mean tumor volume as % of the untreated group ([4]; 25mg/kg q.i.d. for 5 successive days from third day after implantation): 29%; mean tumor volume during the period of observation ([4]; second study, 30 mg/kg q.i.d. on days 10-13 and 50 mg/kg on days 20, 24 and 28): decrease in mean tumor volume; T/C ([4]; second study, 30 mg/kg q.i.d. on days 10-13 and 50 mg/kg on days 20, 24 and 28, twenty-three days after tumor implantation): 0.03; % increases in life span ([1]; 22 mg/kg twice daily for three days from second day): 145%; % increases in life span ([1]; 33.5 mg/kg twice daily for three days from second day): 159%; % increases in life span ([1]; 50 mg/kg twice daily for three days from second day): 140%; % increases in life span ([1]; 75 mg/kg twice daily for three days from second day): 154%; drug-related toxicity ([1]; mice, 22, 33.5, 50 and 75 mg/kg twice daily for three days): no evidence of drug-related toxicity; LD50 [5]: ~500 mg/kg
COc1ccccc1Cc1cnc2nc(N)nc(N)c2c1C | 50 nM | 18% | –
COc1ccc(OC)c(Cc2cnc3nc(N)nc(N)c3c2C)c1 [the 1st table, row 11] | – | 11% | –
COc1ccc(Cc2cnc3nc(N)nc(N)c3c2C)cc1OC | 7.8 nM | 19% | –

Continued, in another order:

IC50 [2] | inhibition at 10 µM [3] | Compound | also measured
53 nM | 20% | COc1ccc(Cc2cnc3nc(N)nc(N)c3c2C)cc1 [the 1st table, row 8] | –
90 nM | 55% | CCc1ccc(Cc2cnc3nc(N)nc(N)c3c2C)cc1 | –
40 nM | 51% | Cc1c(Cc2ccccc2)cnc2nc(N)nc(N)c12 [-CH2 Ph] | –
27 nM | – | Cc1ccc(Cc2cnc3nc(N)nc(N)c3c2C)cc1 | –
